Measurements taken from patent US20230201216A1, “AZELASTINE AS ANTIVIRAL TREATMENT” (priority 2020, published 2023).
Where a name gives a salt, the structure may show the parent alone. Read-outs that look alike come from different tables or passages of the source.

Key:
SARS-CoV-2 [1] = assay type: cell-based; conditions: for viral particle/μL, co-administration / viral particle/μL, post-infection administration: Vero E6, 48 h post infection, median; for reduction of viral particle numbers (up to): Vero E6
SARS-CoV-2 B.1.351 = assay type: cell-based
SARS-CoV-2 [2] = conditions: without virus infection; MucilAir
SARS-CoV-2 [3] = assay type: cell-based; conditions: for cytopathic effect (CPE) score: Vero E6, MOI 0.1, 48 hours post infection; for protective effect against SARS-CoV-2 cytopathic effect: Vero E6
SARS-CoV-2 [4] = assay type: cell-based
RSV Long strain = assay: RSV infection of HEp-2 cells, spot count and viral genome copy number by RT-PCR; assay type: cell-based, Respiratory Syncytial Virus; conditions: for RSV infection of cells by spot count, compared to vehicle (DMSO) treated controls: all 3 settings, HEp-2
influenza H1N1 = assay type: cell-based; conditions: 24 h post-infection, compared to buffer treated cells
IL-8 = assay type: cell-based, human
RANTES = assay type: cell-based, human
[5] = tested on: MucilAir human nasal epithelial cells
SARS-CoV-2 [6] = conditions: cells expressing TMPRSS2, including Calu-3; ref. Hoffmann et al.; cited from earlier work

**Q.** Which “viral particle/μL, co-administration” value (SARS-CoV-2 [1]; 3.125 μM) does the source give for `CN1CCCC(n2nc(Cc3ccc(Cl)cc3)c3ccccc3c2=O)CC1` (centres unmarked) [Azelastine, 4-[(4-chlorophenyl)methyl]-2-(1-methylazepan-4-yl)phthalazin-1-one] here?
**A.** Its value is 98.4 viral particle/μL.

**Q.** And the “viral particle/μL, post-infection administration” value (SARS-CoV-2 [1]; 3.125 μM)?
**A.** Its value is 138 viral particle/μL.

**Q.** And the “viral particle/μL, co-administration” value (SARS-CoV-2 [1]; 6.25 μM)?
**A.** Its value is 15.45 viral particle/μL.

**Q.** And the “viral particle/μL, post-infection administration” value (SARS-CoV-2 [1]; 6.25 μM)?
**A.** The value was 68.4 viral particle/μL.

**Q.** And the “viral particle/μL, co-administration” value (SARS-CoV-2 [1]; 12.5 μM)?
**A.** The value was 12.25 viral particle/μL.

**Q.** What about the “viral particle/μL, post-infection administration” value (SARS-CoV-2 [1]; 12.5 μM) of the same compound?
**A.** Its value is 52 viral particle/μL.

**Q.** And the “viral particle/μL, co-administration” value (SARS-CoV-2 [1]; 25 μM)?
**A.** The value was 0.2 viral particle/μL.

**Q.** What about the “viral particle/μL, post-infection administration” value (SARS-CoV-2 [1]; 25 μM) of the same compound?
**A.** Its value is 6.865 viral particle/μL.

**Q.** And the “reduction of viral particle numbers (up to)” value (shortened to “reduction … (up to)”) (SARS-CoV-2 [1]; co-administration (simulating prevention))?
**A.** The value was greater than 99%.

**Q.** And the “reduction … (up to)” value (SARS-CoV-2 [1]; post-infection administration (post-exposure or therapy))?
**A.** Its value is greater than 97%.

**Q.** And the “inhibition (low viral numbers)” value (SARS-CoV-2 B.1.351)?
**A.** The value was “over 90%”.

**Q.** What about the “tissue morphology of treated versus control cells” value (SARS-CoV-2 [2]) of the same compound?
**A.** The value was “No difference in tissue morphology”.

**Q.** With `CN1CCCC(n2nc(Cc3ccc(Cl)cc3)c3ccccc3c2=O)CC1` (centres unmarked) [Azelastine-HCl] as the compound, how does the “cytopathic effect (CPE) score” value (SARS-CoV-2 [3]; 3.125 μM) read?
**A.** Its value is 2.

**Q.** What about the “cytopathic effect (CPE) score” value (SARS-CoV-2 [3]; 6.25 μM) of the same compound?
**A.** The value was 2.

**Q.** What about the “reduction of viral particle numbers” value (SARS-CoV-2 [4]) of the same compound?
**A.** The value was “over 90%”.

**Q.** And the “reduction … (up to)” value (SARS-CoV-2 [4]; 50 μM, Calu-3, MOI 0.01, 48 h)?
**A.** The value was greater than 99%.

**Q.** What about the “RSV infection of cells by spot count, compared to vehicle (DMSO) treated controls” value (RSV Long strain; 3.2 μM) of the same compound?
**A.** Its value is roughly 50%.

**Q.** And the “RSV infection of cells by spot count, compared to vehicle (DMSO) treated controls” value (RSV Long strain; 6.4 μM)?
**A.** The value was roughly 50%.

**Q.** What about the “Viral genome copy relative to DMSO” value (RSV Long strain; 6.4 μM, co-administration, experiment #1) of the same compound?
**A.** Its value is 46.65%.

**Q.** What about the “Viral genome copy relative to DMSO” value (RSV Long strain; 6.4 μM, co-administration, experiment #2) of the same compound?
**A.** Its value is 53.22%.

**Q.** And the “Viral genome copy relative to DMSO” value (RSV Long strain; 6.4 μM, preventive, experiment #1)?
**A.** The value was 65.52%.

**Q.** What about the “Viral genome copy relative to DMSO” value (RSV Long strain; 6.4 μM, preventive, experiment #2) of the same compound?
**A.** The value was 54.71%.

**Q.** What about the “Viral genome copy relative to DMSO” value (RSV Long strain; 6.4 μM, therapeutic, experiment #1) of the same compound?
**A.** The value was 47.96%.

**Q.** What about the “Viral genome copy relative to DMSO” value (RSV Long strain; 6.4 μM, therapeutic, experiment #2) of the same compound?
**A.** Its value is 51.05%.

**Q.** What about the “decrease in the viral copy” value (influenza H1N1; 0.01% azelastine-HCl) of the same compound?
**A.** Its value is roughly 0.9 log.

**Q.** What about the “reduction of viral genome copy” value (influenza H1N1; 0.01% azelastine-HCl) of the same compound?
**A.** Its value is 87.4%.

**Q.** What about the “decrease in the viral copy” value (influenza H1N1; 0.02% azelastine-HCl) of the same compound?
**A.** The value was roughly 1.9 log.

**Q.** And the “reduction of viral genome copy” value (influenza H1N1; 0.02% azelastine-HCl)?
**A.** Its value is 98.74%.

**Q.** And the “IL-8 levels compared to buffer control” value (IL-8)?
**A.** Its value is “significantly reduced”.

**Q.** What about the “RANTES levels compared to buffer control” value (RANTES) of the same compound?
**A.** Its value is “significantly reduced”.

**Q.** And the cytotoxicity ([5]; 0.02% concentration, infected cells)?
**A.** Its cytotoxicity is “no cytotoxicity”.

**Q.** And the cytotoxicity ([5]; 0.02% concentration, non-infected cells)?
**A.** The cytotoxicity was 6.5%.

**Q.** What about the cytotoxicity ([5]; lower (0.01%) concentration) of the same compound?
**A.** Its cytotoxicity is “no cytotoxicity”.

**Q.** Which “potency on cells expressing the surface protease TMPRSS2” value (SARS-CoV-2 [6]) does the source give for `CCN(CCO)CCCC(C)Nc1ccnc2cc(Cl)ccc12` (centres unmarked) [Hydroxychloroquine sulfate] here?
**A.** The value was “significantly loses its potency”.

**Q.** For Maraviroc, which “cytopathic effect (CPE) score” value (SARS-CoV-2 [3]; 3.125 μM) is on record?
**A.** Its value is 4.

**Q.** What about the “cytopathic effect (CPE) score” value (SARS-CoV-2 [3]; 6.25 μM) of the same compound?
**A.** Its value is 4.

**Q.** What about the “cytopathic effect (CPE) score” value (SARS-CoV-2 [3]; 12.5 μM) of the same compound?
**A.** Its value is 3.

**Q.** What about the “cytopathic effect (CPE) score” value (SARS-CoV-2 [3]; 25 μM) of the same compound?
**A.** Its value is 3.

**Q.** And the “cytopathic effect (CPE) score” value (SARS-CoV-2 [3]; 50 μM)?
**A.** The value was 3.

**Q.** And the “protective effect against SARS-CoV-2 cytopathic effect” value (SARS-CoV-2 [3]; higher concentrations (12.5 to 50 μM))?
**A.** The value was “only marginal protective effect”.

**Q.** And the “protective effect against SARS-CoV-2 cytopathic effect” value (SARS-CoV-2 [3]; lower concentrations)?
**A.** The value was “not effective at all”.
